Read-outs that look alike come from different tables or passages of the source.
Tested on: acetaminophen-induced liver disorder
Assay: Suppressive effect on acetaminophen-induced liver disorder in the rat (s-GOT, s-GPT)
Type: in vivo
Conditions: for inhibition at 102 mg/kg: Rattus norvegicus; for inhibition at 102 mg/kg / inhibition rate of s-GOT / inhibition rate of s-GPT: versus 5% gum arabic control; for s-GOT / s-GPT: male Wistar rats, blood 24 h later, mean ± S.E. (n=4-8)
Description: Male Wistar rats with a body weight of about 180 g were fasted for 24 hours and orally administered, through a cannula for oral administration, 87-349 mg of oxidized-type glutathione isopropyl ester (hereinafter also referred to as "GSSG isopropyl"), which is one of the compounds of the present invention, 102 mg of reduced-type glutathione isopropyl ester 1/2 H2 SO4.1/2H2 O (87 mg as reduced type glutathione isopropyl ester (hereinafter also referred to as "GSH isopropyl")) or 5% gum arabic solution as a control, respectively. 1 hour later, 400 mg/kg of acetaminophen, a compound which may induce disorders in the liver, was intra peritoneally administered. 24 hours later, the rats were anesthetized with pentobarbital and the blood was collected from the abdominal aorta, and s-GOT and s-GPT were measured to compare the hepatic disorder suppressing effect of GSSG isopropyl with that of GSH isopropyl.

[1] = 102 mg/kg [0.25 mmol/kg] oral 1 h before acetaminophen 400 mg/kg i.p.
[2] = 87 mg/kg [0.125 mmol/kg] oral 1 h before acetaminophen 400 mg/kg i.p.
[3] = 174 mg/kg [0.25 mmol/kg] oral 1 h before acetaminophen 400 mg/kg i.p.
[4] = 349 mg/kg [0.5 mmol/kg] oral 1 h before acetaminophen 400 mg/kg i.p.

Q: Which results are given for CC(C)OC(=O)CNC(=O)[C@H](CS)NC(=O)CC[C@H](N)C(=O)O.O=S(=O)(O)O [GSH isopropyl sulfate, γ-L-glutamyl-L-cysteinylglycine isopropyl ester sulfate, reference compound]?
A: elevation of s-GOT and s-GPT (102 mg/kg oral, acetaminophen-treated rats): significantly suppresses; inhibition at 102 mg/kg (102 mg/kg oral, read-out: inhibition rate of s-GOT): 94.5%; inhibition at 102 mg/kg (102 mg/kg oral, read-out: inhibition rate of s-GPT): 94.4%; s-GOT [1]: 475 ± 156 IU/1; s-GPT [1]: 253 ± 97 IU/1

Q: For “γ-L-GLUTAMYL-L-CYSTEI[…] ESTER DISULFIDE [GSSG isopropyl]”, which “hepatic disorder suppressing effect compared with 102 mg/kg of GSH isopropyl sulfate” value (87 mg/kg oral, acetaminophen-treated rats) is on record?
A: The value was “almost equivalent”.

Q: And the “inhibition rate of s-GOT” value (87 mg/kg oral)?
A: The value was 95.0.

Q: What about the “inhibition rate of s-GPT” value (87 mg/kg oral) of the same molecule?
A: The value was 94.9.

Q: And the “inhibition rate of s-GOT” value (174 mg/kg oral)?
A: Its value is 95.9.

Q: And the “inhibition rate of s-GPT” value (174 mg/kg oral)?
A: Its value is 96.6.

Q: And the “inhibition rate of s-GOT” value (349 mg/kg oral)?
A: Its value is 98.6.

Q: What about the “inhibition rate of s-GPT” value (349 mg/kg oral) of the same molecule?
A: Its value is 99.1.

Q: What about the “elevation of s-GOT and s-GPT” value (87-349 mg/kg oral, acetaminophen-treated rats) of the same molecule?
A: Its value is “significantly suppressed dose-dependently”.

Q: And the s-GOT [2]?
A: The s-GOT was 430 ± 236 IU/1.

Q: And the s-GPT [2]?
A: The s-GPT was 231 ± 152 IU/1.

Q: What about the s-GOT [3] of the same molecule?
A: Its s-GOT is 352 ± 104 IU/1.

Q: And the s-GPT [3]?
A: Its s-GPT is 154 ± 46 IU/1.

Q: And the s-GOT [4]?
A: Its s-GOT is 119 ± 11 IU/1.

Q: And the s-GPT [4]?
A: The s-GPT was 39 ± 3 IU/1.

Reference: patent US5223488A, “Oxidized-type glutathione alkyl ester” (Senju Pharmaceutical Company, Ltd., priority 1990, dated 1993)
